Drawing on PubChem BioAssay (NCI), this text covers TGI for seven molecules.

Structures are written as SMILES.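 These data come from cells grown in 96-well plates and exposed to compound for 48 hours at five concentrations. TGI marks complete inhibition of growth.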

For the first test, the system named is NCI-H460 lung. In words: growth of human tumour cells (NCI), 48 h.
As for `CC(C)C[C@H]1[C@@H](OCc2ccccc2)COS(=O)N1[C@H](C)c1ccccc1` (stereo partly specified), the TGI was 47.8 µM.

The test system of another test is NCI-H522 lung. As to the kind of experiment: growth of human tumour cells (NCI), 48 h.
Regarding `COc1cc2c3c(c4cc(OC)c(OC)cc4c2cc1OC)C(=O)C1CCC(=O)N1C3` (stereo unspecified), the TGI amounted to 23.3 µM.

Consider `Cc1c(O)c(C)c2c(C)cn(C(=O)C(C)(C)C)c2c1C`, for which the TGI was 56.2 µM.

The molecule `CCc1nc2ccc(N=NN(C)C)cc2[nH]1` yielded a TGI above 100 µM.

`CC(C)(C)c1cc(C(CO)OCCOCCO)cc(C(C)(C)C)c1O` (stereo unspecified): the TGI was above 100 µM.

For `O=C(NCCCN(CCCCN(CCCNC(=O)C(F)(F)F)CCCc1ccccc1)CCCc1ccccc1)C(F)(F)F`, the TGI is 3.51 µM.

The molecule `CCOP(=O)(O)C(C)(C)NC` came in with a TGI above 100 µM.

In turn, `CC(C)C[C@H]1[C@@H](OCc2ccccc2)COS(=O)N1[C@H](C)c1ccccc1` (stereo partly specified) showed a TGI of 30.4 µM.

Another test has as its system NCI/ADR-RES ovarian. As to the kind of experiment: growth of human tumour cells (NCI), 48 h.
`COc1cc2c3c(c4cc(OC)c(OC)cc4c2cc1OC)C(=O)C1CCC(=O)N1C3` (stereo unspecified) registered a TGI above 100 µM.

For the molecule `Cc1c(O)c(C)c2c(C)cn(C(=O)C(C)(C)C)c2c1C`, the TGI is above 100 µM.

Molecule `CCc1nc2ccc(N=NN(C)C)cc2[nH]1` gave a TGI above 100 µM.

In turn, `CC(C)(C)c1cc(C(CO)OCCOCCO)cc(C(C)(C)C)c1O` (stereo unspecified) showed a TGI above 100 µM.

As to `O=C(NCCCN(CCCCN(CCCNC(=O)C(F)(F)F)CCCc1ccccc1)CCCc1ccccc1)C(F)(F)F`, the TGI amounted to 15.5 µM.

In turn, `CCOP(=O)(O)C(C)(C)NC` returned a TGI above 100 µM.

`CC(C)C[C@H]1[C@@H](OCc2ccccc2)COS(=O)N1[C@H](C)c1ccccc1` (stereo partly specified): the TGI was above 100 µM.

The next test relates to OVCAR-5 ovarian. As to the kind of experiment: growth of human tumour cells (NCI), 48 h.
As to `Cc1c(O)c(C)c2c(C)cn(C(=O)C(C)(C)C)c2c1C`, the TGI was found to be 83 µM.

Consider `CCc1nc2ccc(N=NN(C)C)cc2[nH]1`, for which the TGI is above 100 µM.

`CC(C)(C)c1cc(C(CO)OCCOCCO)cc(C(C)(C)C)c1O` (stereo unspecified): the TGI was above 100 µM.

In turn, `O=C(NCCCN(CCCCN(CCCNC(=O)C(F)(F)F)CCCc1ccccc1)CCCc1ccccc1)C(F)(F)F` registered a TGI of 25.9 µM.

As for `CCOP(=O)(O)C(C)(C)NC`, the TGI is above 100 µM.

On to `CC(C)C[C@H]1[C@@H](OCc2ccccc2)COS(=O)N1[C@H](C)c1ccccc1` (stereo partly specified), for which the TGI is above 100 µM.

For the next test, the system named is OVCAR-8 ovarian. As to the kind of experiment: growth of human tumour cells (NCI), 48 h.
For `COc1cc2c3c(c4cc(OC)c(OC)cc4c2cc1OC)C(=O)C1CCC(=O)N1C3` (stereo unspecified), the TGI is above 100 µM.

Molecule `Cc1c(O)c(C)c2c(C)cn(C(=O)C(C)(C)C)c2c1C` displayed a TGI of 34.7 µM.

The molecule `CCc1nc2ccc(N=NN(C)C)cc2[nH]1` had a TGI above 100 µM.

Take `CC(C)(C)c1cc(C(CO)OCCOCCO)cc(C(C)(C)C)c1O` (stereo unspecified): the TGI was above 100 µM.

Regarding `O=C(NCCCN(CCCCN(CCCNC(=O)C(F)(F)F)CCCc1ccccc1)CCCc1ccccc1)C(F)(F)F`, the TGI amounted to 3.77 µM.

In turn, `CCOP(=O)(O)C(C)(C)NC` showed a TGI above 100 µM.

With `CC(C)C[C@H]1[C@@H](OCc2ccccc2)COS(=O)N1[C@H](C)c1ccccc1` (stereo partly specified), the TGI was above 100 µM.

The subject of the next test is SF-295 CNS. In words: growth of human tumour cells (NCI), 48 h.
The molecule `COc1cc2c3c(c4cc(OC)c(OC)cc4c2cc1OC)C(=O)C1CCC(=O)N1C3` (stereo unspecified) gave a TGI above 100 µM.

In the case of `Cc1c(O)c(C)c2c(C)cn(C(=O)C(C)(C)C)c2c1C`, the TGI came to 32.9 µM.

`CC(C)(C)c1cc(C(CO)OCCOCCO)cc(C(C)(C)C)c1O` (stereo unspecified) yielded a TGI above 100 µM.

Regarding `O=C(NCCCN(CCCCN(CCCNC(=O)C(F)(F)F)CCCc1ccccc1)CCCc1ccccc1)C(F)(F)F`, the TGI turned out to be 3.3 µM.

For the molecule `CCOP(=O)(O)C(C)(C)NC`, the TGI was above 100 µM.

`CC(C)C[C@H]1[C@@H](OCc2ccccc2)COS(=O)N1[C@H](C)c1ccccc1` (stereo partly specified) yielded a TGI of 34.3 µM.

The test system of a further test is SW-620 colon. In words: growth of human tumour cells (NCI), 48 h.
For the molecule `COc1cc2c3c(c4cc(OC)c(OC)cc4c2cc1OC)C(=O)C1CCC(=O)N1C3` (stereo unspecified), the TGI was above 100 µM.

Regarding `Cc1c(O)c(C)c2c(C)cn(C(=O)C(C)(C)C)c2c1C`, the TGI turned out to be 74.4 µM.

Molecule `CCc1nc2ccc(N=NN(C)C)cc2[nH]1` returned a TGI above 100 µM.

Turning to `CC(C)(C)c1cc(C(CO)OCCOCCO)cc(C(C)(C)C)c1O` (stereo unspecified), the TGI is above 100 µM.

For `O=C(NCCCN(CCCCN(CCCNC(=O)C(F)(F)F)CCCc1ccccc1)CCCc1ccccc1)C(F)(F)F`, the TGI was found to be 3.93 µM.

On to `CCOP(=O)(O)C(C)(C)NC`, for which the TGI is above 100 µM.

In the case of `CC(C)C[C@H]1[C@@H](OCc2ccccc2)COS(=O)N1[C@H](C)c1ccccc1` (stereo partly specified), the TGI was above 100 µM.

Another test relates to TK-10 renal. In words: growth of human tumour cells (NCI), 48 h.
In turn, `COc1cc2c3c(c4cc(OC)c(OC)cc4c2cc1OC)C(=O)C1CCC(=O)N1C3` (stereo unspecified) returned a TGI of 54.5 µM.

`Cc1c(O)c(C)c2c(C)cn(C(=O)C(C)(C)C)c2c1C` yielded a TGI of 36.4 µM.

In turn, `CCc1nc2ccc(N=NN(C)C)cc2[nH]1` gave a TGI above 100 µM.

For `CC(C)(C)c1cc(C(CO)OCCOCCO)cc(C(C)(C)C)c1O` (stereo unspecified), the TGI is above 100 µM.

`O=C(NCCCN(CCCCN(CCCNC(=O)C(F)(F)F)CCCc1ccccc1)CCCc1ccccc1)C(F)(F)F` had a TGI of 3.79 µM.

As to `CCOP(=O)(O)C(C)(C)NC`, the TGI was above 100 µM.

With `CC(C)C[C@H]1[C@@H](OCc2ccccc2)COS(=O)N1[C@H](C)c1ccccc1` (stereo partly specified), the TGI is above 100 µM.

Another test deals with U251 CNS. As to the kind of experiment: growth of human tumour cells (NCI), 48 h.
`COc1cc2c3c(c4cc(OC)c(OC)cc4c2cc1OC)C(=O)C1CCC(=O)N1C3` (stereo unspecified): the TGI was above 100 µM.

In the case of `Cc1c(O)c(C)c2c(C)cn(C(=O)C(C)(C)C)c2c1C`, the TGI was found to be 69 µM.

`CCc1nc2ccc(N=NN(C)C)cc2[nH]1`: the TGI is above 100 µM.

Consider `CC(C)(C)c1cc(C(CO)OCCOCCO)cc(C(C)(C)C)c1O` (stereo unspecified), for which the TGI was above 100 µM.

For the molecule `O=C(NCCCN(CCCCN(CCCNC(=O)C(F)(F)F)CCCc1ccccc1)CCCc1ccccc1)C(F)(F)F`, the TGI is 3.56 µM.

Molecule `CCOP(=O)(O)C(C)(C)NC` displayed a TGI above 100 µM.

Consider `CC(C)C[C@H]1[C@@H](OCc2ccccc2)COS(=O)N1[C@H](C)c1ccccc1` (stereo partly specified), for which the TGI amounted to 36.5 µM.

Another test concerns UACC-257 melanoma. As to the kind of experiment: growth of human tumour cells (NCI), 48 h.
In turn, `COc1cc2c3c(c4cc(OC)c(OC)cc4c2cc1OC)C(=O)C1CCC(=O)N1C3` (stereo unspecified) had a TGI above 100 µM.

As to `CCc1nc2ccc(N=NN(C)C)cc2[nH]1`, the TGI is above 100 µM.

Molecule `CC(C)(C)c1cc(C(CO)OCCOCCO)cc(C(C)(C)C)c1O` (stereo unspecified) returned a TGI above 100 µM.

In turn, `O=C(NCCCN(CCCCN(CCCNC(=O)C(F)(F)F)CCCc1ccccc1)CCCc1ccccc1)C(F)(F)F` returned a TGI of 3.32 µM.

The molecule `CCOP(=O)(O)C(C)(C)NC` gave a TGI above 100 µM.

As for `CC(C)C[C@H]1[C@@H](OCc2ccccc2)COS(=O)N1[C@H](C)c1ccccc1` (stereo partly specified), the TGI was above 100 µM.
